The source made the active and inactive calls. The calls are words filed in the database; no cut-off is given here. Where a SMILES comes first, the peptide text is derived from it. Bridges are numbered along the chain shown (N, C = ends). [ ]: non-standard residue; d: D form. Abu(4,4,4-F3) = N[C@@H](CC(F)(F)F)C(=O)O; Cha = N[C@@H](CC1CCCCC1)C(=O)O
Columns and labels:
[1] = Ratio of IC50 for inhibition of rat Nav1.7 stably expressed in cells to EC50 for antinociceptive activity against Sprague-Dawley rat model of thermal stimuli induced nociception assessed as concentration required for maximal tail flick withdrawal latency; type: functional
[2] = target: Sodium channel protein type 2 subunit alpha (Homo sapiens, UniProt Q99250); assay: Inhibition of human Nav1.2 stably expressed in cells with train pulses to -20 mV at 0.1 Hz and holding potential of -95 mV by Qube-automated patch clamp assay; type: cell-based
[3] = target: Voltage-gated inwardly rectifying potassium channel KCNH2 (Homo sapiens, UniProt Q12809); assay: Inhibition of human ERG by PatchXpress assay; type: toxicity
Voltage-gated inwardly rectifying potassium channel KCNH2, sequence (Q12809 whole entry): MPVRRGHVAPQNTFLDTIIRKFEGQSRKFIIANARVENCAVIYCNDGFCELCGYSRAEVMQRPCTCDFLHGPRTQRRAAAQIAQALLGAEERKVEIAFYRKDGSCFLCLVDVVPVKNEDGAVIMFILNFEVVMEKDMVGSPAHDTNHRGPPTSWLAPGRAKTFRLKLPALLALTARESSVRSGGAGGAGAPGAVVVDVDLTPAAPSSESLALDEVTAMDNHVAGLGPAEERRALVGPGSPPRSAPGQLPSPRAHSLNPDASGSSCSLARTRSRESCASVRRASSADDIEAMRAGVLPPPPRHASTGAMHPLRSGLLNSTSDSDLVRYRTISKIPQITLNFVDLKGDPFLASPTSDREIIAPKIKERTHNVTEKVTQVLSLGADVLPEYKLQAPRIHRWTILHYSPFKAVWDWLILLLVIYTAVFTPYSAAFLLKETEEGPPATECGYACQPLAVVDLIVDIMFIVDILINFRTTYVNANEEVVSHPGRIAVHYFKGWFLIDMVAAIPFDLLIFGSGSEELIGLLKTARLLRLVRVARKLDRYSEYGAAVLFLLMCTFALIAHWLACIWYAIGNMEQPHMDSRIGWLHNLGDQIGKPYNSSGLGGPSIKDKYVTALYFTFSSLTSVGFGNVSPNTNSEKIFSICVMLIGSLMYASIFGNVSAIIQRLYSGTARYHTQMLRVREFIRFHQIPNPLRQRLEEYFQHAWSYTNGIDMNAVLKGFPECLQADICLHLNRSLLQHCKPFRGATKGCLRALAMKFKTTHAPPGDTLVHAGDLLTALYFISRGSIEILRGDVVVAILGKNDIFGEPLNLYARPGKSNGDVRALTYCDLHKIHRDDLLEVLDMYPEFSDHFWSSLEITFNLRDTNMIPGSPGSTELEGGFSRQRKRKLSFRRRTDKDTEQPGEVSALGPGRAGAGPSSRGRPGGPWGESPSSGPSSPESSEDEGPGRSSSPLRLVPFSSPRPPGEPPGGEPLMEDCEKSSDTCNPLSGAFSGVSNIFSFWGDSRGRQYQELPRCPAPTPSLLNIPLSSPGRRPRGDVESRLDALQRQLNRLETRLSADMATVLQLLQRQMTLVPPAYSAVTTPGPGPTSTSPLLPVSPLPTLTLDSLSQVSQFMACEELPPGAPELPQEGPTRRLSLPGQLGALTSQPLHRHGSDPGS

[4] = Inhibition of mast cell degranulation in Wistar Han rat peritoneal lavage mast cells assessed as inhibition histamine release by measuring lowest concentration at which histamine release observed measured after 30 mins; type: functional; details: 0.5 h
[5] = target: Sodium channel protein type 4 subunit alpha (Homo sapiens, UniProt P35499); assay: Inhibition of human Nav1.4 stably expressed in cells with train pulses to -20 mV at 0.1 Hz and holding potential of -95 mV by whole-cell Qube-automated patch clamp assay; type: cell-based
[6] = system: Rattus norvegicus; assay: Antinociceptive activity against Sprague-Dawley rat model of thermal stimuli induced nociception assessed as increase in tail withdrawal latency administered subcutaneously as single dose measured up to 300 mins by tail flick test; type: functional, organism-based; details: dose 1-2 mg/kg, time min <=300
[7] = target: Voltage-dependent L-type calcium channel subunit alpha-1C (Homo sapiens, UniProt Q13936); assay: Inhibition of human Cav1.2 stably expressed in HEK293 cells incubated for 30 mins in dark by Fluo-4 AM dye based FLIPR assay; type: cell-based
[8] = target: Sodium channel protein type 9 subunit alpha (Rattus norvegicus, UniProt O08562); assay: Inhibition of rat Nav1.7 stably expressed in cells with train pulses to -20 mV at 0.1 Hz and holding potential of -90 mV by whole-cell QPatch HT assay; type: cell-based
[9] = Half life in Wistar Han rat at 0.3 mg/kg, iv measured upto 24 hrs by LC/MS/MS analysis; type: ADME, organism-based; details: in vivo
[10] = target: Sodium channel protein type 5 subunit alpha (Homo sapiens, UniProt Q14524); assay: Inhibition of human Nav1.5 by PatchXpress assay; type: toxicity
Sodium channel protein type 5 subunit alpha, sequence (Q14524 whole entry): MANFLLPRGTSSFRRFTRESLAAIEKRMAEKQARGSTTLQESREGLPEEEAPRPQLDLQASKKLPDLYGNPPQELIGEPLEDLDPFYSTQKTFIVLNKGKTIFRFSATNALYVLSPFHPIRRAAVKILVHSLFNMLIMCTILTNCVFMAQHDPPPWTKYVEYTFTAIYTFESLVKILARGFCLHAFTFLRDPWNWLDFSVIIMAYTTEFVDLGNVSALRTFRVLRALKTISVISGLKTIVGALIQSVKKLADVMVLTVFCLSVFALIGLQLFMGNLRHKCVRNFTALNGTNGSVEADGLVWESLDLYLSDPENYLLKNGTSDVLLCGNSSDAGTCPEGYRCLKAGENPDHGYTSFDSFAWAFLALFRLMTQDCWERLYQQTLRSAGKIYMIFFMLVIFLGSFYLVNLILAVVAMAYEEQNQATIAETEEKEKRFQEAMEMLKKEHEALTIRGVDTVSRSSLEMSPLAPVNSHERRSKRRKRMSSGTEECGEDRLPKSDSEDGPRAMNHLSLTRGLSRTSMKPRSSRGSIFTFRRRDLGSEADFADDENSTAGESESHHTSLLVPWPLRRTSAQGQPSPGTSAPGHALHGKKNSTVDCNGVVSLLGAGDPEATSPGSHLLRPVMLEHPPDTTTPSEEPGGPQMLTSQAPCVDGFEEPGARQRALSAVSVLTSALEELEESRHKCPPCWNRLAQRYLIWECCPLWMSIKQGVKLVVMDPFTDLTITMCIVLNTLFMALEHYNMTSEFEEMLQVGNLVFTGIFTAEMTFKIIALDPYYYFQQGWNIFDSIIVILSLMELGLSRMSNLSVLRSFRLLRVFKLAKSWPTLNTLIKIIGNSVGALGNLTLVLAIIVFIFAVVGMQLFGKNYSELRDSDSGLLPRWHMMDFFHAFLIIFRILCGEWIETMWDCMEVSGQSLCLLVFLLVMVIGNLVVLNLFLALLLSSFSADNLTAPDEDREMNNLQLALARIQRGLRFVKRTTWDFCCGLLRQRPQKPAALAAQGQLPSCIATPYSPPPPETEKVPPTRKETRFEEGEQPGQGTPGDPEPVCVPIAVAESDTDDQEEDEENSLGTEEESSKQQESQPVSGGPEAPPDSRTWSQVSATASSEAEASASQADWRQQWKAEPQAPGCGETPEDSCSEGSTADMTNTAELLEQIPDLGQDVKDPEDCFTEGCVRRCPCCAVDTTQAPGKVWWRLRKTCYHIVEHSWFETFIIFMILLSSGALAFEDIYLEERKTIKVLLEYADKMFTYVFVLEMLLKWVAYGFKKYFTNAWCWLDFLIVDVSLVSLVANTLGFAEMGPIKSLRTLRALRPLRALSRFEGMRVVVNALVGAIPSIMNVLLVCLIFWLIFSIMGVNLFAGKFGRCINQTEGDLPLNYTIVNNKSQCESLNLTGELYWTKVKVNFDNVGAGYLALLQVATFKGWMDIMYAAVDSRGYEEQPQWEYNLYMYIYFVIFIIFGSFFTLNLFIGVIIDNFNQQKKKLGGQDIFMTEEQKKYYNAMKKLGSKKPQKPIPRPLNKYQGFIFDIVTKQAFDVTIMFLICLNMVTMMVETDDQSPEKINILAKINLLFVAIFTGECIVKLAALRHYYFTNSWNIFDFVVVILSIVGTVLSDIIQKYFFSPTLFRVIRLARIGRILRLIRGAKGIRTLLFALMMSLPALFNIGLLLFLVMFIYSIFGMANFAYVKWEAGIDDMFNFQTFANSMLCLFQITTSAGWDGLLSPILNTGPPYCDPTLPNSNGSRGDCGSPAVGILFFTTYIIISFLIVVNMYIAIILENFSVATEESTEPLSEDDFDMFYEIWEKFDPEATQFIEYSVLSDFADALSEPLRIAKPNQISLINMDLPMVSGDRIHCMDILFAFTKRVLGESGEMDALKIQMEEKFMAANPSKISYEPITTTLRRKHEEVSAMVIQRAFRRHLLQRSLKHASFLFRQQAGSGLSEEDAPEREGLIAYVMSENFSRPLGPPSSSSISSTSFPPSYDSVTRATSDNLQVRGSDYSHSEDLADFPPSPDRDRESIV

[11] = target: Sodium channel protein type 8 subunit alpha (Homo sapiens, UniProt Q9UQD0); assay: Inhibition of human Nav1.6 stably expressed in cells with train pulses to -20 mV at 0.1 Hz and holding potential of -85 mV by whole-cell Qube-automated patch clamp assay; type: cell-based
[12] = system: Rattus norvegicus; assay: Antinociceptive activity against Sprague-Dawley rat model of thermal stimuli induced nociception assessed as concentration required for maximal tail flick withdrawal latency administered subcutaneously as single dose measured up to 300 mins by tail flick test; type: functional, organism-based; details: 5 h
[13] = target: T1, Sodium channel protein type 9 subunit alpha (Homo sapiens, UniProt Q15858); assay: Inhibition of human Nav1.7 stably expressed in cells with train pulses to -20 mV at 0.1 Hz and holding potential of -95 mV by whole-cell QPatch HT assay; type: cell-based
T1 sequence (Q15858 whole entry): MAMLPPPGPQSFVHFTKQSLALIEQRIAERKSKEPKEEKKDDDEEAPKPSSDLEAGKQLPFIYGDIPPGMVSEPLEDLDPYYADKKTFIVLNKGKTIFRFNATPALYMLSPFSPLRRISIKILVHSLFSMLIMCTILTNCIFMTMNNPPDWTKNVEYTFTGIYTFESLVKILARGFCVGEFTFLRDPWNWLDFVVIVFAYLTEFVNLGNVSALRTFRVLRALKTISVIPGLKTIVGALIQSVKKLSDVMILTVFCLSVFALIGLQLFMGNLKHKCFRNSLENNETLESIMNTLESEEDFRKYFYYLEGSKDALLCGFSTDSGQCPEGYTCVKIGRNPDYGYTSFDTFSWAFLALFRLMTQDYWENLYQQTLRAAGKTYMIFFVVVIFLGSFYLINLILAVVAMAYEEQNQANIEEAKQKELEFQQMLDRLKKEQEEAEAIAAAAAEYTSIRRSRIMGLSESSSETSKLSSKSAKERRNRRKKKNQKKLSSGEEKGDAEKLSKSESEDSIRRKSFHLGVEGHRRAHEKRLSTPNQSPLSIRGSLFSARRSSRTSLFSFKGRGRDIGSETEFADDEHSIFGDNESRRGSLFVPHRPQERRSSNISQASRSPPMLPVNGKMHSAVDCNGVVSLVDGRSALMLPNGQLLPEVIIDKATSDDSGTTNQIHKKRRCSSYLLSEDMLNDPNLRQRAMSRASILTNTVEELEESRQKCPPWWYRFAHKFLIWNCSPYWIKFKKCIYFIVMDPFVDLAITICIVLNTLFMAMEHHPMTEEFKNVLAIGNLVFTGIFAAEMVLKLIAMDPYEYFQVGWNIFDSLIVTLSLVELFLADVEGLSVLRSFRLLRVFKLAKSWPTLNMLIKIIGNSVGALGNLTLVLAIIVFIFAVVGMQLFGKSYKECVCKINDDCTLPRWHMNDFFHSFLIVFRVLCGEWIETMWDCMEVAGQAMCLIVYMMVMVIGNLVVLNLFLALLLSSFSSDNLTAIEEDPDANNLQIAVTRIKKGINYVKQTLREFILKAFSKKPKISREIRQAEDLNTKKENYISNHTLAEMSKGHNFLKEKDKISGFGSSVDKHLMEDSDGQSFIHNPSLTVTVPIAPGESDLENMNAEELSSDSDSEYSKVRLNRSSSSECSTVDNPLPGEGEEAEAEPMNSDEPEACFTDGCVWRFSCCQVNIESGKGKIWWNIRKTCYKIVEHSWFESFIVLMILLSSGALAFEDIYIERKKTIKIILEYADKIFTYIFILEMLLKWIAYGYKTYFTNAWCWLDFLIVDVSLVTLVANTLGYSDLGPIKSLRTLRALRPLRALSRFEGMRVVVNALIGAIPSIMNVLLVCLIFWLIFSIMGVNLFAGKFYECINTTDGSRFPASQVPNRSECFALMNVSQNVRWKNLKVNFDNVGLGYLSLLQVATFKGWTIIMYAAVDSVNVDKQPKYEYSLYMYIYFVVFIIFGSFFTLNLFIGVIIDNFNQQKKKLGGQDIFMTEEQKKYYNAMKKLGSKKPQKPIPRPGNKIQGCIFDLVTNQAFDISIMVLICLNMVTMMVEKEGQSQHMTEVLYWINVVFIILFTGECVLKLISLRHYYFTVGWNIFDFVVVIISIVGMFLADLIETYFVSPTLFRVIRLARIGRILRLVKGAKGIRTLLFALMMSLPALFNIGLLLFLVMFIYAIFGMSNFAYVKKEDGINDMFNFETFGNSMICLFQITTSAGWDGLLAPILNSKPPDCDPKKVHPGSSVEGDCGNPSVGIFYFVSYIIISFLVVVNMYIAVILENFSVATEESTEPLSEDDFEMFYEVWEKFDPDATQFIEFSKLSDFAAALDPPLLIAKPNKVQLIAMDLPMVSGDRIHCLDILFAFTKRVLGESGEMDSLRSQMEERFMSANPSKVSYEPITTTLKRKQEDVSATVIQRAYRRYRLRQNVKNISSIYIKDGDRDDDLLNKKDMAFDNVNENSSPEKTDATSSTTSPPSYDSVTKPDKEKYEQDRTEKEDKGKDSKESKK

[14] = system: Mast cell; assay: Effect on mast cell degranulation in Wistar Han rat peritoneal lavage mast cells assessed as increase in maximum histamine level in plasma at upto 1 mg/kg, iv administered as bolus dose measured up to 24 hrs by LC/MS/MS analysis; type: functional, organism-based; details: dose mg/kg <=1, time hrs <=24
[15] = system: Rattus norvegicus; assay: Antinociceptive activity against Sprague-Dawley rat model of thermal stimuli induced nociception assessed as concentration required for maximal tail flick withdrawal latency administered subcutaneously as single dose measured up to 24 hrs by tail flick test; type: functional, organism-based
[16] = target: T1, Sodium channel protein type 9 subunit alpha; assay: Inhibition of human Nav1.7 stably expressed in cells with train pulses to -20 mV at 0.1 Hz and holding potential of -95 mV by Qube-automated patch clamp assay; type: cell-based
[17] = system: Rattus norvegicus; assay: Antinociceptive activity against Sprague-Dawley rat model of thermal stimuli induced nociception assessed as increase in tail withdrawal latency administered subcutaneously as single dose measured up to 24 hrs by tail flick test; type: functional, organism-based; details: time hrs <=24
[18] = system: Mast cell; assay: Effect on mast cell degranulation in Wistar Han rat peritoneal lavage mast cells assessed as fold increase in histamine level by measuring histamine Cmax in plasma at 0.3 mg/kg, iv administered as bolus dose measured up to 24 hrs by LC/MS/MS analysis relative to control; type: functional; details: time hrs <=24

SMILES | fold change (FC) [1] | IC50 [2] | IC50 [3] | LED [4] | IC50 [5] | Activity [6] | IC50 [7] | IC50 [8] | half-life [9] | IC50 [10] | IC50 [11] | EC50 [12] | IC50 [13] | Activity [14] | EC50 [15] | IC50 [16] | Activity [17] | fold change (FC) [18]
CSCC[C@@H]1NC(=O)CNC(=O)[C@H](CCC(=O)O)NC(=O)[C@@H]2CSSC[C@H](NC(=O)[C@@H](N)Cc3ccc(O)cc3)C(=O)N[C@@H](CCC(N)=O)C(=O)N[C@@H](CCCCN)C(=O)N[C@@H](Cc3c[nH]c4ccccc34)C(=O)N[C@@H](CCSC)C(=O)N[C@@H](Cc3c[nH]c4ccccc34)C(=O)N[C@@H]([C@@H](C)O)C(=O)N[C@H]3CSSC[C@H](NC(=O)[C@H](C(C)C)NC1=O)C(=O)N[C@@H](CCCNC(=N)N)C(=O)N[C@@H](CC(C)C)C(=O)N[C@@H](Cc1c[nH]c4ccccc14)C(=O)N[C@H](C(=O)N[C@@H](CCCCN)C(=O)N[C@@H](CCCCN)C(=O)N[C@@H](CCCCN)C(=O)N[C@@H](CC(C)C)C(=O)N[C@@H](Cc1c[nH]c4ccccc14)C(N)=O)CSSC[C@H](NC(=O)[C@H](CCCCN)NC(=O)[C@H](CCCNC(=N)N)NC(=O)[C@H](CCC(=O)O)NC(=O)[C@H](CO)NC(=O)[C@H](CC(=O)O)NC3=O)C(=O)N2 | 50 | 1500 nM | 22 nM | 0.37 µM | 93 nM | Dose-Dependent Effect | 1400 nM | 1.3 nM | < 3 h | 180 nM | 75 nM | 56 nM | – | – | – | – | – | –
CC(=O)N[C@H]1CSSC[C@@H]2NC(=O)[C@@H]3CSSC[C@@H](C(=O)N[C@@H](CCCCN)C(=O)N[C@@H](CCCCN)C(=O)N[C@@H](CCCCN)C(=O)N[C@@H](CC(C)C)C(=O)N[C@@H](Cc4c[nH]c5ccccc45)C(N)=O)NC(=O)[C@H](Cc4c[nH]c5ccccc45)NC(=O)[C@H](CC(C)C)NC(=O)[C@H](CCCCN)NC(=O)[C@H](CSSC[C@H](NC(=O)[C@@H]4CCCN4C(=O)[C@H](CCC(=O)O)NC(=O)[C@H](CC(C)C)NC(=O)[C@H](Cc4ccccc4)NC(=O)[C@H](CCCCN)NC(=O)[C@H](CCC(N)=O)NC1=O)C(=O)N[C@@H](CC(=O)O)C(=O)N[C@@H](CO)C(=O)N[C@@H](CCC(=O)O)C(=O)N[C@@H](CCCNC(=N)N)C(=O)N[C@@H](CCCCN)C(=O)N3)NC(=O)[C@H](CCC(=O)O)NC(=O)[C@H](CC(C)C)NC(=O)CNC(=O)[C@H](CCC(=O)O)NC2=O (Ac-CQKFLEPCDSERKCCEGLECKLWCKKKLW-NH2; disulfide 1-15, 8-20, 14-24) | 50 | > 17000 nM | > 15000 nM | 30 µM | > 17000 nM | – | > 30000 nM | 18.8 nM | < 3 h | > 15000 nM | > 17000 nM | – | 133 nM | inactive | 1620 nM | 183 nM | Dose-Dependent Effect | –
CC(C)C[C@@H]1NC(=O)CNC(=O)[C@H](CCC(=O)O)NC(=O)[C@@H]2CSSC[C@H](NC(=O)[C@@H](N)Cc3ccc(O)cc3)C(=O)N[C@@H](CCC(N)=O)C(=O)N[C@@H](CCCCN)C(=O)N[C@@H](Cc3ccccc3)C(=O)N[C@@H](CC(C)C)C(=O)N[C@@H](C)C(=O)N3CCC[C@H]3C(=O)N[C@H]3CSSC[C@H](NC(=O)[C@H](C(C)C)NC1=O)C(=O)N[C@@H](CCCNC(=N)N)C(=O)N[C@@H](CC(C)C)C(=O)N[C@@H](Cc1c[nH]c4ccccc14)C(=O)N[C@H](C(=O)N[C@@H](CCCCN)C(=O)N[C@@H](CCCCN)C(=O)N[C@@H](CCCCN)C(=O)N[C@@H](CC(C)C)C(=O)N[C@@H](Cc1c[nH]c4ccccc14)C(N)=O)CSSC[C@H](NC(=O)[C@H](CCCCN)NC(=O)[C@H](CCCNC(=N)N)NC(=O)[C@H](CCC(=O)O)NC(=O)[C@H](CO)NC(=O)[C@H](CC(=O)O)NC3=O)C(=O)N2 (H-YCQKFLAPCDSERKCCEGLVCRLWCKKKLW-NH2; disulfide 2-16, 9-21, 15-25) | 50 | > 17000 nM | 780 nM | 3.3 µM | 1770 nM | – | > 30000 nM | 8.3 nM | < 3 h | 2900 nM | 1190 nM | – | 5.9 nM | – | 294 nM | 32 nM | Dose-Dependent Effect | 12
CC(=O)N[C@H]1CSSC[C@@H]2NC(=O)[C@@H]3CSSC[C@@H](C(=O)N[C@@H](CCCCN)C(=O)N[C@@H](CCCCN)C(=O)N[C@@H](CCCCN)C(=O)N[C@@H](CC(C)C)C(=O)N[C@@H](Cc4c[nH]c5ccccc45)C(N)=O)NC(=O)[C@H](Cc4c[nH]c5ccccc45)NC(=O)[C@H](CC(C)C)NC(=O)[C@H](CCCNC(=N)N)NC(=O)[C@H](CSSC[C@H](NC(=O)[C@@H]4CCCN4C(=O)[C@H](C)NC(=O)[C@H](CC(C)C)NC(=O)[C@H](Cc4ccccc4)NC(=O)[C@H](CCCCN)NC(=O)[C@H](CCC(N)=O)NC1=O)C(=O)N[C@@H](CC(=O)O)C(=O)N[C@@H](CO)C(=O)N[C@@H](CCC(=O)O)C(=O)N[C@@H](CCCNC(=N)N)C(=O)N[C@@H](CCCCN)C(=O)N3)NC(=O)[C@H](C(C)C)NC(=O)[C@H](CC(C)C)NC(=O)CNC(=O)[C@H](CCC(=O)O)NC2=O (Ac-CQKFLAPCDSERKCCEGLVCRLWCKKKLW-NH2; disulfide 1-15, 8-20, 14-24) | – | – | – | 3.3 µM | 1240 nM | – | – | – | – | – | 1230 nM | – | – | – | – | 20 nM | – | –
CC(=O)N[C@H]1CSSC[C@@H]2NC(=O)[C@@H]3CSSC[C@@H](C(=O)N[C@@H](CCCCN)C(=O)N[C@@H](CCCCN)C(=O)N[C@@H](CCCCN)C(=O)N[C@@H](CC(C)C)C(=O)N[C@@H](Cc4c[nH]c5ccccc45)C(N)=O)NC(=O)[C@H](Cc4c[nH]c5ccccc45)NC(=O)[C@H](CC(C)C)NC(=O)[C@H](CCCNC(=N)N)NC(=O)[C@H](CSSC[C@H](NC(=O)[C@@H]4CCCN4C(=O)[C@H](CCCCN)NC(=O)[C@H](CC(C)C)NC(=O)[C@H](Cc4ccccc4)NC(=O)[C@H](CCC(=O)O)NC(=O)[C@H](CCC(N)=O)NC1=O)C(=O)N[C@@H](CC(=O)O)C(=O)N[C@@H](CO)C(=O)N[C@@H](CCC(=O)O)C(=O)N[C@@H](CCCNC(=N)N)C(=O)N[C@@H](CCCCN)C(=O)N3)NC(=O)[C@H](C(C)C)NC(=O)[C@H](CC(C)C)NC(=O)CNC(=O)[C@H](CCC(=O)O)NC2=O (Ac-CQEFLKPCDSERKCCEGLVCRLWCKKKLW-NH2; disulfide 1-15, 8-20, 14-24) | – | – | – | 10 µM | 4140 nM | – | – | – | – | – | 4830 nM | – | – | – | – | 27 nM | – | –
CC(=O)N[C@H]1CSSC[C@@H]2NC(=O)[C@@H]3CSSC[C@@H](C(=O)N[C@@H](CCCCN)C(=O)N[C@@H](CCCCN)C(=O)N[C@@H](CCCCN)C(=O)N[C@@H](CC(C)C)C(=O)N[C@@H](Cc4c[nH]c5ccccc45)C(N)=O)NC(=O)[C@H](Cc4c[nH]c5ccccc45)NC(=O)[C@H](CC4CCCCC4)NC(=O)[C@H](CCCCN)NC(=O)[C@H](CSSC[C@H](NC(=O)[C@@H]4CCCN4C(=O)[C@H](CCC(=O)O)NC(=O)[C@H](CC(F)(F)F)NC(=O)[C@H](CC4CCCCC4)NC(=O)[C@H](CCCCN)NC(=O)[C@H](CCC(N)=O)NC1=O)C(=O)N[C@@H](CC(=O)O)C(=O)N[C@@H](CO)C(=O)N[C@@H](CCC(=O)O)C(=O)N[C@@H](CCCNC(=N)N)C(=O)N[C@@H](CCCCN)C(=O)N3)NC(=O)[C@H](CCC(=O)O)NC(=O)[C@H](CC(C)C)NC(=O)CNC(=O)[C@H](CCC(=O)O)NC2=O (Ac-CQK[Cha][Abu(4,4,4-F3)]EPCDSERKCCEGLECK[Cha]WCKKKLW-NH2; disulfide 1-15, 8-20, 14-24) | – | – | – | 33 µM | > 17000 nM | – | – | – | – | – | > 17000 nM | – | – | – | – | 76 nM | – | –
